Experimental data taken from PubChem BioAssay (NCI).
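Method: 48-hour compound exposure of cells in 96-well plates, five concentrations, linear interpolation of endpoints. Here, GI50 denotes the concentration required for 50% inhibition of growth. TGI: total growth inhibition.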

Experiments:
Assay in all cases: DTP human tumour cell line panel, 48 h
[1] = test system: CCRF-CEM leukemia
[2] = test system: HCT-15 colon
[3] = test system: HT29 colon
[4] = test system: LOX IMVI melanoma
[5] = test system: OVCAR-8 ovarian
[6] = test system: SF-295 CNS
[7] = test system: SK-MEL-2 melanoma
[8] = test system: UACC-257 melanoma
[9] = test system: UACC-62 melanoma
[10] = test system: M14 melanoma

Structure (SMILES) | TGI [1] [µM] | TGI [2] [µM] | TGI [3] [µM] | TGI [4] [µM] | TGI [5] [µM] | TGI [6] [µM] | TGI [7] [µM] | TGI [8] [µM] | TGI [9] [µM] | TGI [10] [µM] | GI50 [1] [nM] | GI50 [2] [nM] | GI50 [3] [nM] | GI50 [5] [nM] | GI50 [6] [nM] | GI50 [7] [nM] | GI50 [8] [nM] | GI50 [9] [nM] | GI50 [4] [nM] | GI50 [10] [nM]
O=C(NC(Cc1ccc(I)cc1)C(=O)O)c1ccc(Cl)cc1 (stereo unspecified) | > 100 | > 100 | > 100 | > 100 | > 100 | > 100 | > 100 | > 100 | > 100 |  |  |  |  |  |  |  |  |  |  | 
CO/N=C(\C)c1cccc(Nc2nc3ccccc3c3occc23)c1 | 37.7 | 24.5 | 17.6 | 31.6 | 33.4 | 25.9 |  | 3.69 | 2.18 | 30.7 |  |  |  |  |  |  |  |  |  | 
COc1cc([N+](=O)[O-])ccc1N1C(=O)C2c3[nH]c4ccccc4c3C3CCC(C(C)(C)C)CC3C2C1=O (stereo unspecified) | > 100 | > 100 | > 100 | > 100 | > 100 |  | > 100 | > 100 | > 100 | 40.5 |  |  |  |  |  |  |  |  |  | 
O=C1OC2(OC2c2ccc(Cl)cc2)c2ccccc21 (stereo unspecified) | > 100 | > 100 | > 100 | 34 | > 100 | > 100 | > 100 |  | > 100 | > 100 |  |  |  |  |  |  |  |  |  | 
CNC(C)Cc1ccccc1OC (stereo unspecified) | > 100 | > 100 | > 100 | > 100 | > 100 | > 100 | > 100 | > 100 | > 100 | > 100 |  |  |  |  |  |  |  |  |  | 
Cc1ccc([N+](=O)[O-])cc1S(=O)(=O)Nc1ccc(C2=NOC(c3ccccc3O)C2)cc1 (stereo unspecified) | > 100 | 85.3 | 30.8 | > 100 | > 100 | > 100 | > 100 | > 100 | 98.9 | 6.85 |  |  |  |  |  |  |  |  |  | 
CCOP(=O)(OCC)C(Nc1cccc(F)c1)c1ccc(N(C)C)cc1 (stereo unspecified) | > 100 | > 100 | > 100 | > 100 | > 100 | > 100 | > 100 | > 100 | > 100 | > 100 |  |  |  |  |  |  |  |  |  | 
CC1C(=O)C(C)C(c2ccco2)N(N=O)C1c1ccco1 (stereo unspecified) | > 100 | > 100 | > 100 | > 100 | > 100 | > 100 | > 100 | > 100 | > 100 |  |  |  |  |  |  |  |  |  |  | 
O=c1c2cc(S(=O)(=O)O)ccc2nc(COc2ccc(Oc3ccc(Cl)cc3Cl)cc2)n1C(=S)Nc1ccc(Cl)cc1 | > 100 | 50.5 | 36.4 | 32 | 55.3 | 39.6 | 37.4 | 60.5 | 31 | 40.9 |  |  |  |  |  |  |  |  |  | 
Cc1ccc(N=NC(C2=NC(=O)CS2)c2nc3ccccc3[nH]2)cc1 (stereo unspecified) | > 100 | > 100 | > 100 |  | > 100 | > 100 |  | > 100 | > 100 | > 100 |  |  |  |  |  |  |  |  |  | 
C[n+]1c2ccccc2c(CNC(CS)C(=O)O)c2ccccc21 (stereo unspecified) | 62.4 | 55.1 | > 100 |  | 75 | 63.4 | 76.8 | > 100 | 29.6 | > 100 |  |  |  |  |  |  |  |  |  | 
CCOC(=O)Nc1cc2c(c(N)n1)N=C(c1ccc3ccccc3c1)CN2 | 0.0944 | > 100 | 1.5 | 8.1 | 10.8 |  | 5.15 | > 100 | 30.9 | 17.5 |  |  |  |  |  |  |  |  |  | 
CS(=O)(=O)OCCN(CCOS(C)(=O)=O)c1ccc(/C=N/Nc2ncnc3nc[nH]c23)cc1 | > 100 | > 100 | 65.9 | 37.7 | 57.7 | 46.6 | 39.2 | 48.9 | 27.8 | 34.1 |  |  |  |  |  |  |  |  |  | 
Nc1nc(OCC2CCCCC2)c2[nH]cnc2n1 | 43.6 | > 100 | 48.5 | 37.7 | > 100 | > 75.6 | 22.1 | 61.8 | > 74.6 | 57.8 |  |  |  |  |  |  |  |  |  | 
CN(C)c1ccc(/C=c2/c3ccccc3n3c2cc(NC(=O)NCCC[N+](C)(C)C)[n+]3C)cc1 | 2.04 | > 100 | > 100 | > 100 | > 100 | > 100 | > 100 | > 100 | > 100 | > 100 |  |  |  |  |  |  |  |  |  | 
NCCNCCNc1ccc(NCCNCCN)c2c1C(=O)c1c(O)ccc(O)c1C2=O | > 100 | > 100 | > 100 | > 100 | > 100 | > 100 |  | > 100 | > 100 | > 100 |  |  |  |  |  |  |  |  |  | 
CCO[C@]12CCC[C@H]1[C@@H]1C(=O)c3ccccc3C(=O)C1=C(C)O2 | > 100 | > 100 | > 100 | 44.7 | > 100 | > 100 | > 100 | > 100 | > 100 | > 100 |  |  |  |  |  |  |  |  |  | 
CC1(C=O)CCC23COC4(CCC5C6(C)CCC(OC7OCC(OC8OC(CO)C(O)C(OC9OC(CO)C(O)C(O)C9O)C8OC8OCC(O)C(O)C8O)C(O)C7OC7OC(CO)C(O)C(O)C7O)C(C)(C)C6CCC5(C)C4(C)CC2O)C3C1 (stereo unspecified) | 0.789 | 2.86 | 2.07 |  | 1.48 | 2.23 | 2.98 |  | 3.17 | 2.85 |  |  |  |  |  |  |  |  |  | 
CCCCCCCN(CCCCCCC)CC(O)c1cc2ccccc2c2cc(Br)ccc12 (stereo unspecified) | > 100 | > 100 | > 100 | > 100 | > 100 |  | 69.9 | > 100 | > 100 | 76.7 |  |  |  |  |  |  |  |  |  | 
COc1cc([N+](=O)[O-])ccc1NC(=O)c1cccc([N+](=O)[O-])c1O | > 100 | > 100 | > 100 | > 100 | > 100 | 81.6 | 68 | 63.7 | > 100 | > 100 |  |  |  |  |  |  |  |  |  | 
Oc1ccc(-c2nc3cc(F)ccc3s2)cc1 | > 100 | 68.2 | 56.7 | 33.3 | > 100 | 48.6 | 36.9 | 69.6 | 36.4 | 47.6 |  |  |  |  |  |  |  |  |  | 
c1ccc([P+](c2ccccc2)(c2ccccc2)c2ccc(-c3ccc([P+](c4ccccc4)(c4ccccc4)c4ccccc4)cc3)cc2)cc1 | > 100 | > 100 | 63.5 | 51.9 | 85.5 | 76.9 | 62 | 63 | > 100 | > 100 |  |  |  |  |  |  |  |  |  | 
CC1(O)COCCCCOc2c(CN)cccc2NC(=O)c2nc(cnc2N)-c2ccc(cc2)S(=O)(=O)C(C)(C)C1 (stereo unspecified) | 1.25 | 1.82 | 2.47 |  | 3.63 | 2.84 | 3.36 | 3.35 | 3.36 |  | < 10 | 227 | 408 | 1310 | 1430 | 1740 | 1760 | 1860 |  | 
CC1CC(Br)C(=O)O1 (stereo unspecified) | > 100 | > 100 | > 100 | > 100 | > 100 | > 100 | > 100 | > 100 | > 100 | > 100 |  |  |  |  |  |  |  |  |  | 
N=C(N)SCc1cccc([N+](=O)[O-])c1 | > 85.9 | > 100 | 85.1 | > 100 | > 67 | > 100 | > 73.7 | > 75 | > 100 |  |  |  |  |  |  |  |  |  |  | 
CCc1ccc2c(c1)C(=O)c1c-2n(CCCN)c(=O)c2cc([N+](=O)[O-])ccc12 |  |  | 2.07 | 2.62 | 2.35 | 2.47 |  | 3.42 | 2.83 | 3.08 |  |  | 452 | 1020 | 1070 |  | 1880 | 1480 | 1190 | 1560
c1c2c(cc3c1OCO3)-c1cc3ccc4c(c3c[n+]1CC2)OCO4 | > 12.5 | 4.77 | > 12.5 | > 8.44 | 4.13 | 3.52 | > 12.5 | > 12.5 | > 12.5 | 5.9 |  |  |  |  |  |  |  |  |  | 
